Data set [1] deals with T1, Human immunodeficiency virus type 1 protease (Human immunodeficiency virus 1, UniProt Q72874). Nature of the data set: Tested in vitro for potential potency against PI-resistant HIV virus by A-44 mutant enzyme variant.
The target of data set [2] is T1, Human immunodeficiency virus type 1 protease. The data set is described as follows: Tested in vitro for the ability to inhibit cleavage of a substrate by the wild type HIV-1 protease.
The subject of data set [3] is Human immunodeficiency virus 1. The data set is described as follows: Inhibition of the spread of viral infection in MT-4 human T-lymphoid cells infected by IIIb isolate. Format: functional. The settings on record: Human immunodeficiency virus 1, T-lymphoid; read-out: CIC95.
The nature of data set [4]: Tested for the pharmacokinetic data, maximum concentration (Cmax) in dog. Format: ADME, organism-based, Canis lupus familiaris. The settings on record: in vivo.
The nature of data set [5]: Tested for the pharmacokinetic data, maximum concentration (Cmax) in dog at dosage of 10 mpk. Format: ADME, organism-based, Canis lupus familiaris. The arrangement: dose 10 mpk. The settings on record: in vivo, 10 mg/kg.
A short description of data set [6]: Tested for the half life period in dog. Format: ADME, organism-based, Canis lupus familiaris. The settings on record: in vivo.
Data set [7] can be described thus: Tested for the half life period in dog at dosage of 10 mpk. The settings on record: in vivo, 10 mg/kg. Format: ADME, organism-based, Canis lupus familiaris.
Data set [8] can be described thus: Tested for the pharmacokinetic data, area under the curve of concentration versus time in dog. Format: ADME, organism-based, Canis lupus familiaris. The settings on record: in vivo.
Data set [9] is described as follows: Tested for the pharmacokinetic data, area under the curve of concentration versus time in dog at dosage of 10 mpk. The settings on record: in vivo, 10 mg/kg. Format: ADME, organism-based, Canis lupus familiaris.
The nature of data set [10]: Tested for the pharmacokinetic data, time required to reach Cmax (Tmax) in dog at dosage of 10 mpk. Format: ADME, organism-based, Canis lupus familiaris. The settings on record: in vivo, 10 mg/kg.
The species entered for the next data set is Canis familiaris. The data set is described as follows: Tested for the pharmacokinetic data, time required to reach Cmax (Tmax) in dog. Format: ADME, organism-based, Canis lupus familiaris. The settings on record: in vivo.

Molecules are shown by their SMILES.

As to `CN(C)c1ccc2cc(S(=O)(=O)N3CCN(C[C@@H](O)C[C@@H](Cc4ccccc4)C(=O)N[C@H]4c5ccccc5C[C@H]4O)[C@H](C(=O)NC(C)(C)C)C3)ccc2n1`, the IC50 was below 0.6 nM in data set [1] and below 0.1 nM in data set [2]. For the same molecule, in [3], the IC95 was 12.5 nM.
In the case of `CC(C)(C)NC(=O)[C@@H]1CN(Cc2ncc(-c3ccccc3)s2)CCN1C[C@@H](O)C[C@@H](Cc1ccccc1)C(=O)N[C@H]1c2ccccc2C[C@H]1O`, the figures for the IC50 in data set [1] and in data set [2] were below 0.6 nM and below 0.1 nM, respectively. Moreover, the IC95 in [3] came out at 25 nM.
For the molecule `C[C@@H]1CC[C@@H](O)C1NC(=O)[C@H](CC1CC1)C[C@H](O)CN1CCN(Cc2cccnc2)C[C@H]1C(=O)NC(C)(C)C` (single isomer, unassigned), the Cmax in data set [4] stood at 996 nM; in [5], 6620 nM. Further, the results for the half-life in data set [6] and in data set [7] were 19 min and 41 min, respectively. The AUC in [8] was 0.839 µM·h; in [9] it was 5.28 µM·h. In addition, the Tmax in data set [10] was 45 min. For the same molecule, the T max in the data set filed under Canis familiaris came out at 40 min.
As for `C[C@@H]1CC[C@@H](O)C1NC(=O)[C@H](CC1CCCCC1)C[C@H](O)CN1CCN(Cc2cccnc2)C[C@H]1C(=O)NC(C)(C)C` (single isomer, unassigned), the Cmax turned out to be 483 nM in [4] and 3760 nM in data set [5]. Besides, the half-life in data set [6] is 42.5 min; in data set [7], 49 min. Besides, the AUC in [8] is 0.504 µM·h; in [9] it was 3.83 µM·h. Further, the Tmax in data set [10] was 25 min. Moreover, the T max in the data set filed under Canis familiaris stood at 40 min.
`CC(C)(C)NC(=O)[C@@H]1CN(Cc2cccnc2)CCN1C[C@@H](O)C[C@@H](CC1CCCCC1)C(=O)NC1c2cccc(Cl)c2C[C@H]1O` (single isomer, unassigned): the Cmax turned out to be 182 nM in data set [4] and 360 nM in data set [5]. The figures for the half-life in [6] and in data set [7] were 81 min and 53 min, respectively. Besides, the exposure (AUC) in [8] stood at 0.235 µM·h; in [9], 0.48 µM·h. Besides, in data set [10], the Tmax is 35 min. In addition, the T max in the data set listed under Canis familiaris was 40 min.
For `Cn1nc(C(F)(F)F)cc1-c1ccc(CN2CCN(C[C@@H](O)C[C@@H](Cc3ccccc3)C(=O)NC3c4ccccc4C[C@H]3O)[C@H](C(=O)NC(C)(C)C)C2)s1` (single isomer, unassigned), the results for the IC50 in [1] and in [2] were below 0.6 nM and below 0.1 nM, respectively. In data set [3], the IC95 worked out at 6 nM.

(Values after ChEMBL document CHEMBL1135057, “A combinatorial library of indinavir analogues and its in vitro and in vivo studies” (Bioorg Med Chem Lett, 2002).)
